Counter-ions that a name gives are not always drawn.
Key:
HSP72 in U2OS cells = assay: Cell-based ELISA (Cellisa) assay, U2OS cells: inhibition of 17-AAG-induced HSP72; conditions: Homo sapiens; U2OS cells (Examples 1-168)
Description: U2OS cells (5-8×10^4 cells/mL) or SK-OV-3 cells (5-8×10^4 cells/mL) were seeded into 96-well plates and incubated at 37° C. for 48 h. Compounds were then added at a range of concentrations and incubated for 1 h before addition of 17-AAG (250 nM). Cells were then incubated for 18 h. The medium was removed washed 2× with PBS and cells were then fixed with fixing solution (4% paraformaldehyde, 0.3% TritonX-100 in PBS) for 30 min at 4° C. The plates were then washed 2× with PBS before blocking with 5% milk for 30 min at 37° C. After washing the plates 4× with 0.1% Tween-20/deionised water, HSP72 antibody (SPA-810, Enzo Life) was added for 1.5 h at 37° C. Following 4× washes, the plates were incubated with europium-labelled anti-mouse antibody (0.6 ug/ml) in Delfia assay buffer (Perkin Elmer) for 1 h at 37° C. After washing the plates, Delfia enhancement solution was added, shaken for 10 min before reading in the Envision plate reader (Perkin-Elmer) with excitation at 340 nm and emission at 615 nm. The plates were washed again before protein determination using the bicinchoninic acid assay (BCA assay, Pierce Biotechnology). The europium counts were normalised for the amount of protein in each well. The 50% inhibitory concentration value of the compound was then calculated.

U2OS cells = assay: Titre Blue cell viability assay, U2OS cells; format: cell-based; conditions: Homo sapiens, U2OS

| Compound | IC50 (HSP72 in U2OS cells) [nM] | IC50 (U2OS cells) [nM] |
| --- | --- | --- |
| COCCOc1ccc2cc(C(=O)Nc3cc(NC(=O)c4ccc5c(c4)OCCO5)ccc3C)ccc2n1 [Example 3, N-(5-(2,3-dihydrobenzo[b][1,4]dioxine-6-carboxamido)-2-methylphenyl)-2-(2-methoxyethoxy)quinoline-6-carboxamide] | 7 | 29 |
| Cc1ccc(NC(=O)c2ccc3c(c2)OCCO3)cc1NC(=O)c1ccc2nc(CCO)ccc2c1 [Example 75, N-(5-(2,3-dihydrobenzo[b][1,4]dioxine-6-carboxamido)-2-methylphenyl)-2-(2-hydroxyethyl)quinoline-6-carboxamide] | 17 | 56 |
| Cc1ccc(NC(=O)c2ccc3c(c2)OCCO3)cc1NC(=O)c1ccc2nc(OCCNC(=O)OC(C)(C)C)ccc2c1 [Example 21, tert-butyl (2-((6-((5-(2,3-dihydrobenzo[b][1,4]dioxine-6-carboxamido)-2-methylphenyl)carbamoyl)quinolin-2-yl)oxy)ethyl)carbamate] | 141 | 84 |
| COc1ccc(C(=O)Nc2cc(NC(=O)c3ccc4c(c3)OCCO4)ccc2C)cc1C [Example 26, N-(3-(4-methoxy-3-methylbenzamido)-4-methylphenyl)-2,3-dihydrobenzo[b][1,4]dioxine-6-carboxamide] | 262 | 71 |
| Cc1ccc(NC(=O)c2ccc3c(c2)OCCO3)cc1NC(=O)c1ccc2c(c1)CC(C)O2 (stereo not shown) [Example 14, N-(4-methyl-3-(2-methyl-2,3-dihydrobenzofuran-5-carboxamido)phenyl)-2,3-dihydrobenzo[b][1,4]dioxine-6-carboxamide] | 81 | 94 |
| Cc1ccc(NC(=O)c2ccc3c(c2)OCCO3)cc1NC(=O)c1ccc2nc(CN3CCCC3)ccc2c1 [Example 67, N-(5-(2,3-dihydrobenzo[b][1,4]dioxine-6-carboxamido)-2-methylphenyl)-2-(pyrrolidin-1-ylmethyl)quinoline-6-carboxamide formate] | 35 | 33 |
| Cc1ccc(NC(=O)c2ccc3c(c2)OCCO3)cc1NC(=O)c1ccc2nc(C(F)(F)F)[nH]c2c1 [Example 90, N-(5-(2,3-dihydrobenzo[b][1,4]dioxine-6-carboxamido)-2-methylphenyl)-2-(trifluoromethyl)-1H-benzo[d]imidazole-6-carboxamide] |  | 1360 |
| CNc1ccc2cc(C(=O)Nc3cc(NC(=O)c4ccc5c(c4)OCCO5)ccc3C)ccc2n1 [Example 79, N-(5-(2,3-dihydrobenzo[b][1,4]dioxine-6-carboxamido)-2-methylphenyl)-2-(methylamino)quinoline-6-carboxamide] | 70 | 54 |
| Cc1ccc(NC(=O)c2ccc3c(c2)OCCO3)cc1NC(=O)c1cnc2[nH]cnc2c1 [Example 92, N-(5-(2,3-dihydrobenzo[b][1,4]dioxine-6-carboxamido)-2-methylphenyl)-3H-imidazo[4,5-b]pyridine-6-carboxamide] | 4410 | 3280 |
| Cc1ccc(NC(=O)c2ccc3c(c2)OCCO3)cc1NC(=O)c1cnc2cccc(NCCN3CCCC3)c2c1 [Example 148, N-(5-(2,3-dihydrobenzo[b][1,4]dioxine-6-carboxamido)-2-methylphenyl)-5-((2-(pyrrolidin-1-yl)ethyl)amino)quinoline-3-carboxamide] | 88 | 104 |
| Cc1ccc(NC(=O)c2ccc3c(c2)OCCO3)cc1NC(=O)c1ccc2oc(=O)ccc2c1 [Example 4, N-(4-methyl-3-(2-oxo-2H-chromene-6-carboxamido)phenyl)-2,3-dihydrobenzo[b][1,4]dioxine-6-carboxamide] | 10 | 18 |
| Cc1ccc(NC(=O)c2ccc3c(c2)OCCO3)cc1NC(=O)c1ccc2nc(OCCCN3CCOCC3)ccc2c1 [Example 55, N-(5-(2,3-dihydrobenzo[b][1,4]dioxine-6-carboxamido)-2-methylphenyl)-2-(3-morpholinopropoxy)quinoline-6-carboxamide] | 13 | 20 |
| Cc1ccc(NC(=O)c2ccc3c(c2)OCCO3)cc1NC(=O)c1ccc2nc(OCCN3CCC3)ccc2c1 [Example 60, 2-(2-(azetidin-1-yl)ethoxy)-N-(5-(2,3-dihydrobenzo[b][1,4]dioxine-6-carboxamido)-2-methylphenyl)quinoline-6-carboxamide] | 16 | 13 |
| Cc1ccc(NC(=O)c2ccc3c(c2)OCCO3)cc1NC(=O)c1ccc2nc(OCCCN(C)C)ccc2c1 [Example 51, N-(5-(2,3-dihydrobenzo[b][1,4]dioxine-6-carboxamido)-2-methylphenyl)-2-(3-(dimethylamino)propoxy)quinoline-6-carboxamide] | 4 | 10 |
| Cc1ccc2cc(C(=O)Nc3cccc(NC(=O)c4ccc5c(c4)OCCO5)c3)ccc2n1 [Example 113, N-(3-(2,3-dihydrobenzo[b][1,4]dioxine-6-carboxamido)phenyl)-2-methylquinoline-6-carboxamide] | 160 | 117 |
| Cc1ccc(NC(=O)c2ccc3c(c2)OCCO3)cc1NC(=O)c1ccc2c(c1)COC2=O [Example 8, N-(4-methyl-3-(1-oxo-1,3-dihydroisobenzofuran-5-carboxamido)phenyl)-2,3-dihydrobenzo[b][1,4]dioxine-6-carboxamide] | 205 | 108 |
| Cc1ccc(NC(=O)c2ccc3c(c2)OCCO3)cc1NC(=O)c1ccc2c(c1)CCCO2 [Example 9, N-(3-(chroman-6-carboxamido)-4-methylphenyl)-2,3-dihydrobenzo[b][1,4]dioxine-6-carboxamide] | 22 | 90 |
| Cc1ccc(NC(=O)c2ccc3c(c2)OCCO3)cc1NC(=O)c1ccc2c(ccn2C)c1 [Example 16, N-(5-(2,3-dihydrobenzo[b][1,4]dioxine-6-carboxamido)-2-methylphenyl)-1-methyl-1H-indole-5-carboxamide] | 94 | 31 |
| Cc1ccc(NC(=O)c2ccc3c(c2)OCCO3)cc1NC(=O)c1ccc2ncccc2c1 [Example 1, N-(5-(2,3-dihydrobenzo[b][1,4]dioxine-6-carboxamido)-2-methylphenyl)quinoline-6-carboxamide] | 5 |  |
| Cc1ccc(NC(=O)c2ccc3c(c2)OCCO3)cc1NC(=O)c1cnc2cccc(CCO)c2c1 [Example 157, N-(5-(2,3-dihydrobenzo[b][1,4]dioxine-6-carboxamido)-2-methylphenyl)-5-(2-hydroxyethyl)quinoline-3-carboxamide] | 221 |  |
| COc1cccc(C(=O)Nc2cc(NC(=O)c3ccc4c(c3)OCCO4)ccc2C)c1 [Example 40, N-(3-(3-methoxybenzamido)-4-methylphenyl)-2,3-dihydrobenzo[b][1,4]dioxine-6-carboxamide] | 1160 |  |
| Cc1ccc(NC(=O)c2ccc3c(c2)OCCO3)cc1NC(=O)c1ccc2nc(Cl)ccc2c1 [Example 12, 2-chloro-N-(5-(2,3-dihydrobenzo[b][1,4]dioxine-6-carboxamido)-2-methylphenyl)quinoline-6-carboxamide] | 51 |  |
| CCNc1ccc(C(=O)Nc2cc(NC(=O)c3ccc4c(c3)OCCO4)ccc2C)cn1 [Example 102, N-(5-(2,3-dihydrobenzo[b][1,4]dioxine-6-carboxamido)-2-methylphenyl)-6-(ethylamino)nicotinamide] | 835 |  |
| Cc1ccc(NC(=O)c2ccc3c(c2)OCCO3)cc1NC(=O)c1ccc2nc(C(C)O)ccc2c1 (stereo not shown) [Example 142, N-(5-(2,3-dihydrobenzo[b][1,4]dioxine-6-carboxamido)-2-methylphenyl)-2-(1-hydroxyethyl)quinoline-6-carboxamide] | 51 |  |
| Cc1ccc(NC(=O)c2ccc3c(c2)OCCO3)cc1NC(=O)c1ccc2c(c1)CC[C@H](C)N2 [Example 154, (S)—N-(5-(2,3-dihydrobenzo[b][1,4]dioxine-6-carboxamido)-2-methylphenyl)-2-methyl-1,2,3,4-tetrahydroquinoline-6-carboxamide] | 145 |  |
| Cc1ccc(NC(=O)c2ccc3c(c2)OCCO3)cc1NC(=O)c1ccc(OCc2cncs2)cc1 [Example 20, N-(4-methyl-3-(4-(thiazol-5-ylmethoxy)benzamido)phenyl)-2,3-dihydrobenzo[b][1,4]dioxine-6-carboxamide] | 1480 |  |
| COCCOc1cc(OC)c2cc(C(=O)Nc3cc(NC(=O)c4ccc5c(c4)OCCO5)ccc3C)ccc2n1 [Example 22, N-(5-(2,3-dihydrobenzo[b][1,4]dioxine-6-carboxamido)-2-methylphenyl)-4-methoxy-2-(2-methoxyethoxy)quinoline-6-carboxamide] | 160 |  |
| Cc1ccc(NC(=O)c2ccc3c(c2)OCCO3)cc1NC(=O)c1ccc(-c2ccccc2)nc1 [Example 37, N-(5-(2,3-dihydrobenzo[b][1,4]dioxine-6-carboxamido)-2-methylphenyl)-6-phenylnicotinamide] | 1960 |  |
| Cc1ccc(NC(=O)c2ccc3c(c2)OCCO3)cc1NC(=O)c1ccc(Nc2cccc(OC3CCN(C)CC3)c2)nc1 [Example 121, N-(5-(2,3-dihydrobenzo[b][1,4]dioxine-6-carboxamido)-2-methylphenyl)-6-(3-(1-methylpiperidin-4-yloxy)phenylamino)nicotinamide] |  | 338 |

— US9701664B2, “Fused 1,4-dihydrodioxin derivatives as inhibitors of heat shock transcription factor 1” (Cancer Research Technology Limited, priority 2013, dated 2017)
